We go through 36 molecules from patent US10214507B2, “Carbazole-containing amides, carbamates, and ureas as cryptochrome modulators” (Reset Therapeutics, Inc., priority 2014, dated 2019).

The assay has as its system stable U20S reporter cells harboring Per2-dLuc. The assay is described as follows: Per2 assay for evaluating the potency of test compounds (circadian luciferase reporter). The assay is classed as cell-based. The conditions noted are these: amplitude of Per2-dLuc luminescence vs log concentration. The method, then:
Compounds were screened by using a high-throughput circadian assay system as previously described in Zhang, E. E. et al. Cell, 2009, 139, 199-210. In brief, stable U20S reporter cells harboring Per2-dLuc were plated at a density of 30,000 cells/well in Corning 96-well, solid white, flat bottom, TC-treated microplates (Corning®), and incubated for 48 hours at 37° C. in the presence of 5% CO2 in a medium of Dulbecco's Modified Eagle Medium (DMEM) supplemented with 10% fetal bovine serum (FBS) and penicillin (100 units/mL)-streptomycin (100 μg/mL). […] DMSO stocks are then serially diluted in DMSO, typically diluting 3-fold for each dilution step. Following the 48 h period, cell culture medium is removed from plated cells and cells are synchronized with 200 μL/well of complete cell culture medium (described above), supplemented with 5 μM forskolin (Tocris®) and 1 mM beetle luciferin (Promega®). Immediately following synchronization, 1 μL of compound dilution is added to each well. Plates are sealed, shaken briefly, and gene expression was monitored by measuring luminescence (Tecan® Infinite M200 or Tecan® Infinite M200 Pro) continuously for a minimum of 3 days at 35° C. Raw luminescence data (counts) are first analyzed using Multicycle™ software (Actimetrics, Inc.) to determine the amplitude (amp), period, and phase (phz) for each compound concentration. The period length for control wells (i.e. no compound, DMSO only) should be 26-30 h. Amp data are then plotted against the logarithm compound concentration (M) and analyzed by nonlinear regression analysis to determine the EC50.

Structures are written as SMILES.

Regarding `CC(O)(CN1CCCC1=O)Cn1c2ccccc2c2ccccc21` (stereo not drawn) [Compound 67, 1-(3-(9H-carbazol-9-yl)-2-hydroxy-2-methylpropyl)pyrrolidin-2-one], the midpoint of the response, the EC50, lay at 225 nM. As to `CN1CCCN(CC(O)Cn2c3ccc(F)cc3c3cc(F)ccc32)C1=O` (stereo not drawn) [Compound 6, 1-(3-(3,6-difluoro-9H-carbazol-9-yl)-2-hydroxypropyl)-3-methyltetrahydropyrimidin-2(1H)-one], the EC50 worked out at 719 nM. The molecule `CC1CC(=O)N(CC(O)Cn2c3ccc(F)cc3c3cc(F)ccc32)C1C` (stereo not drawn) [Compound 47, 1-(3-(3,6-difluoro-9H-carbazol-9-yl)-2-hydroxypropyl)-4,5-dimethylpyrrolidin-2-one] returned an EC50 of 299 nM. To `CC(O)(CN1CCCC(F)C1=O)Cn1c2ccc(F)cc2c2cc(F)ccc21` (stereo not drawn) [Compound 12, 1-(3-(3,6-difluoro-9H-carbazol-9-yl)-2-hydroxy-2-methylpropyl)-3-fluoropiperidin-2-one] belongs 909 nM; to `CC(O)(CN1CCCCC1=O)Cn1c2ccccc2c2ccccc21` (stereo not drawn) [Compound 66, 1-(3-(9H-carbazol-9-yl)-2-hydroxy-2-methylpropyl)piperidin-2-one], 523 nM; to `O=C1NCCCN1CC(O)Cn1c2ccc(F)cc2c2cc(F)ccc21` (stereo not drawn) [Compound 71, 1-(3-(3,6-difluoro-9H-carbazol-9-yl)-2-hydroxypropyl)tetrahydropyrimidin-2(1H)-one], 188 nM.

Regarding `CC(C)C1CCCN(CC(C)(O)Cn2c3ccc(F)cc3c3cc(F)ccc32)C1=O` (stereo not drawn) [Compound 26, 1-(3-(3,6-difluoro-9H-carbazol-9-yl)-2-hydroxy-2-methylpropyl)-3-isopropylpiperidin-2-one], the EC50 came out at 1050 nM.

`CC1CN(C)C(=O)N(CC(O)Cn2c3ccc(F)cc3c3cc(F)ccc32)C1` (stereo not drawn) [Compound 94, 1-(3-(3,6-difluoro-9H-carbazol-9-yl)-2-hydroxypropyl)-3,5-dimethyltetrahydropyrimidin-2(1H)-one] yielded an EC50 of 833 nM. As for `O=C1N(CC(O)Cn2c3ccc(F)cc3c3cc(F)ccc32)CCN1C1CC1` (stereo not drawn) [Compound 92, 1-cyclopropyl-3-(3-(3,6-difluoro-9H-carbazol-9-yl)-2-hydroxypropyl)imidazolidin-2-one], the 50% effective concentration (EC50) stood at 527 nM. As for `CN1CCCN(CC(O)Cn2c3ccccc3c3ccccc32)C1=O` (stereo not drawn) [Compound 2, 1-(3-(9H-carbazol-9-yl)-2-hydroxypropyl)-3-methyltetrahydropyrimidin-2(1H)-one], the figure is 736 nM. In turn, `C[C@@H]1CCC(=O)N(C[C@H](O)Cn2c3ccccc3c3ccccc32)C1` [Compound 131, (R)-1-((R)-3-(9H-carbazol-9-yl)-2-hydroxypropyl)-5-methylpiperidin-2-one] yielded an EC50 of 280 nM. As for `CC(O)(CN1CCCN(c2ccccc2)C1=O)Cn1c2ccc(F)cc2c2cc(F)ccc21` (stereo not drawn) [Compound 79, 1-(3-(3,6-difluoro-9H-carbazol-9-yl)-2-hydroxy-2-methylpropyl)-3-phenyltetrahydropyrimidin-2(1H)-one], the EC50 came to 923 nM. In the case of `CC1CC(=O)N(CC(C)(O)Cn2c3ccc(F)cc3c3cc(F)ccc32)C1` (stereo not drawn) [Compound 44, 1-(3-(3,6-difluoro-9H-carbazol-9-yl)-2-hydroxy-2-methylpropyl)-4-methylpyrrolidin-2-one], the EC50 came to 1060 nM. `O=C1CCCCN1CC(O)Cn1c2ccc(F)cc2c2cc(F)ccc21` (stereo not drawn) [Compound 4, 1-(3-(3,6-difluoro-9H-carbazol-9-yl)-2-hydroxypropyl)piperidin-2-one] returned a 50% effective concentration (EC50) of 192 nM. As for `CC1CCN(CC(O)Cn2c3ccc(F)cc3c3cc(F)ccc32)C1=O` (stereo not drawn) [Compound 29, 1-(3-(3,6-difluoro-9H-carbazol-9-yl)-2-hydroxypropyl)-3-methylpyrrolidin-2-one], the figure is 422 nM. In turn, `CC1(C)CCCN(CC(O)Cn2c3ccc(F)cc3c3cc(F)ccc32)C1=O` (stereo not drawn) [Compound 16, 1-(3-(3,6-difluoro-9H-carbazol-9-yl)-2-hydroxypropyl)-3,3-dimethylpiperidin-2-one] returned a half-maximal effective concentration (EC50) of 463 nM. For `O=C1N(CC(O)Cn2c3ccc(F)cc3c3cc(F)ccc32)CCCN1C1CCC1` (stereo not drawn) [Compound 78, 1-cyclobutyl-3-(3-(3,6-difluoro-9H-carbazol-9-yl)-2-hydroxypropyl)tetrahydropyrimidin-2(1H)-one], the EC50 is 440 nM. The EC50 values of the last two molecules are within 1.5-fold of each other. The molecule `O=C1[C@H](F)CCN1C[C@H](O)Cn1c2ccccc2c2ccccc21` [Compound 121, (R)-1-((R)-3-(9H-carbazol-9-yl)-2-hydroxypropyl)-3-fluoropyrrolidin-2-one] displayed an EC50 of 210 nM.

With `CC(O)(CN1CCCN(C2CCC2)C1=O)Cn1c2ccc(F)cc2c2cc(F)ccc21` (stereo not drawn) [Compound 81, 1-cyclobutyl-3-(3-(3,6-difluoro-9H-carbazol-9-yl)-2-hydroxy-2-methylpropyl)tetrahydropyrimidin-2(1H)-one], a half-maximal effect (EC50) was put at 816 nM. Molecule `O=C1CCCN1CC(O)Cn1c2ccccc2c2ccccc21` (stereo not drawn) [Compound 68, 1-(3-(9H-carbazol-9-yl)-2-hydroxypropyl)pyrrolidin-2-one] had a concentration giving a half-maximal response (EC50) of 288 nM. As for `O=C1C(C2CCCCC2)CCCN1CC(O)Cn1c2ccc(F)cc2c2cc(F)ccc21` (stereo not drawn) [Compound 20, 3-cyclohexyl-1-(3-(3,6-difluoro-9H-carbazol-9-yl)-2-hydroxypropyl)piperidin-2-one], the figure is 379 nM. Regarding `CC1CCN(CC(O)Cn2c3ccc(F)cc3c3cc(F)ccc32)C(=O)C1` (stereo not drawn) [Compound 49, 1-(3-(3,6-difluoro-9H-carbazol-9-yl)-2-hydroxypropyl)-4-methylpiperidin-2-one], the EC50 was 137 nM. In turn, `CC1CCC(=O)N(CC(O)Cn2c3ccc(F)cc3c3cc(F)ccc32)C1` (stereo not drawn) [Compound 37, 1-(3-(3,6-difluoro-9H-carbazol-9-yl)-2-hydroxypropyl)-5-methylpiperidin-2-one] showed a half-maximal effective concentration (EC50) of 224 nM.

The molecule `O=C1CCCCN1CC(O)Cn1c2ccccc2c2ccccc21` (stereo not drawn) [Compound 1, 1-(3-(9H-carbazol-9-yl)-2-hydroxypropyl)piperidin-2-one] returned an EC50 of 171 nM. The EC50 values of the last two molecules are within 1.5-fold of each other. Molecule `CC(C)C1CC(=O)N(CC(O)Cn2c3ccc(F)cc3c3cc(F)ccc32)C1` (stereo not drawn) [Compound 41, 1-(3-(3,6-difluoro-9H-carbazol-9-yl)-2-hydroxypropyl)-4-isopropylpyrrolidin-2-one] had an EC50 of 373 nM. As for `O=C1[C@@H]2CC[C@@H](C2)N1C[C@H](O)Cn1c2ccc(F)cc2c2cc(F)ccc21` [Compound 104, (1S,4R)-2-((R)-3-(3,6-difluoro-9H-carbazol-9-yl)-2-hydroxypropyl)-2-azabicyclo[2.2.1]heptan-3-one], the figure is 115 nM; as for `O=C1C(c2ccccc2)CCN1CC(O)Cn1c2ccc(F)cc2c2cc(F)ccc21` (stereo not drawn) [Compound 53, 1-(3-(3,6-difluoro-9H-carbazol-9-yl)-2-hydroxypropyl)-3-phenylpyrrolidin-2-one], 1340 nM; as for `CC(C)N1CCCN(CC(C)(O)Cn2c3ccc(F)cc3c3cc(F)ccc32)C1=O` (stereo not drawn) [Compound 80, 1-(3-(3,6-difluoro-9H-carbazol-9-yl)-2-hydroxy-2-methylpropyl)-3-isopropyltetrahydropyrimidin-2(1H)-one], 1100 nM.

For the molecule `CC1(C)CCN(CC(O)Cn2c3ccc(F)cc3c3cc(F)ccc32)C1=O` (stereo not drawn) [Compound 15, 1-(3-(3,6-difluoro-9H-carbazol-9-yl)-2-hydroxypropyl)-3,3-dimethylpyrrolidin-2-one], the concentration for a half-maximal effect (EC50) is 164 nM. Compared with the last molecule, the EC50 is about 6.7-fold lower.

Molecule `C[C@H]1CCC(=O)N(C[C@H](O)Cn2c3ccc(F)cc3c3cc(F)ccc32)C1` [Compound 130, (S)-1-((R)-3-(3,6-difluoro-9H-carbazol-9-yl)-2-hydroxypropyl)-5-methylpiperidin-2-one] returned an EC50 of 895 nM.

For `CC(C)N1CCN(CC(O)Cn2c3ccccc3c3ccccc32)C1=O` (stereo not drawn) [Compound 98, 1-(3-(9H-carbazol-9-yl)-2-hydroxypropyl)-3-isopropylimidazolidin-2-one], the EC50 was 269 nM. `O=C1COCCN1CC(O)Cn1c2ccc(F)cc2c2cc(F)ccc21` (stereo not drawn) [Compound 55, 4-(3-(3,6-difluoro-9H-carbazol-9-yl)-2-hydroxypropyl)morpholin-3-one]: it took 738 nM to reach a half-maximal effect (EC50). For the molecule `O=C1C(c2ccccc2)CCCN1CC(O)Cn1c2ccc(F)cc2c2cc(F)ccc21` (stereo not drawn) [Compound 19, 1-(3-(3,6-difluoro-9H-carbazol-9-yl)-2-hydroxypropyl)-3-phenylpiperidin-2-one], the EC50 was determined as 547 nM. With `O=C1N(CC(O)Cn2c3ccc(F)cc3c3cc(F)ccc32)CCN1c1ccccc1` (stereo not drawn) [Compound 89, 1-(3-(3,6-difluoro-9H-carbazol-9-yl)-2-hydroxypropyl)-3-phenylimidazolidin-2-one], the EC50 came out at 438 nM. The EC50 values of the last two molecules are within 1.5-fold of each other. To `CC(O)(CN1CCCN(C2CCCCC2)C1=O)Cn1c2ccc(F)cc2c2cc(F)ccc21` (stereo not drawn) [Compound 82, 1-cyclohexyl-3-(3-(3,6-difluoro-9H-carbazol-9-yl)-2-hydroxy-2-methylpropyl)tetrahydropyrimidin-2(1H)-one] belongs 1190 nM; to `O=C1[C@H]2CC[C@H](C2)N1C[C@@H](O)Cn1c2ccccc2c2ccccc21` [Compound 108, (1R,4S)-2-((S)-3-(9H-carbazol-9-yl)-2-hydroxypropyl)-2-azabicyclo[2.2.1]heptan-3-one], 750 nM.
